Measurements as given in patent publication US20220089541A1, “Compounds for the Treatment of Kinase-Dependent Disorders” (Exelixis, Inc., priority 2019, published 2022).

Columns and labels:
[1] = target: T1, Mer (Homo sapiens, UniProt Q12866); assay: Mer autophosphorylation ELISA in transient transfected 293A cells; format: cell-based; settings: 293A cells transfected with MERTK DNA, phospho-Mer ELISA, 1 h compound incubation
T1 construct: host or cells: 293A cells (Thermo Fisher #R70507)
T1 sequence (Q12866 21-999): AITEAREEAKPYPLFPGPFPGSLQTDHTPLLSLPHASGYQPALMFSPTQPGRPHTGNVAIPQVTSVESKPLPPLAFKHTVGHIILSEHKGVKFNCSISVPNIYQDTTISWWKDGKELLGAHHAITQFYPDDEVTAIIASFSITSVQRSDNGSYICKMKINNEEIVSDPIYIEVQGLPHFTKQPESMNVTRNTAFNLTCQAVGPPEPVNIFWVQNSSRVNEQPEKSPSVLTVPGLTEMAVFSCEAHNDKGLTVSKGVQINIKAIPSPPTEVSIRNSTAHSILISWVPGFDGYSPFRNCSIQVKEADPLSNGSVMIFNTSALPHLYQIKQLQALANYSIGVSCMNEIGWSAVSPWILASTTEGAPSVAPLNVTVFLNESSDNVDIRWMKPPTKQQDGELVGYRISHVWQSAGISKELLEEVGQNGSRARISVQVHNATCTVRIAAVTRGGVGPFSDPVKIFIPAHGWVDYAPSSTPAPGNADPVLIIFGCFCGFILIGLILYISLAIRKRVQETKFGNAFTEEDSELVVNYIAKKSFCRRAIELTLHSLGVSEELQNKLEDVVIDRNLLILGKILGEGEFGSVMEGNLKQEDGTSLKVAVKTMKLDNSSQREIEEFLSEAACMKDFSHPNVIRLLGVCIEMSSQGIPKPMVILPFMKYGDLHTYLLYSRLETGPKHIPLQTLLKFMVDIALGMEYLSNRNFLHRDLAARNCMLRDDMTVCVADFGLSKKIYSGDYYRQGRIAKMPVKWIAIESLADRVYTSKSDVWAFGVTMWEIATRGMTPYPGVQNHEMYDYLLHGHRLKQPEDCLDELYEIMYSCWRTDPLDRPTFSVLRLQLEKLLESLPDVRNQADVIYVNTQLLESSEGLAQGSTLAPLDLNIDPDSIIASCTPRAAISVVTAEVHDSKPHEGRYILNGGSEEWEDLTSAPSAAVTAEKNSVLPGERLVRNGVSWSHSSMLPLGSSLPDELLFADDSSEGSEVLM
Description: Example D: Mer Autophosphorylation ELISA in Transient Transfected 293A Cells
293A cells (Thermo Fisher #R70507) were seeded at 1.5×10^6 cells/well onto 100 mm dish (Greiner #664169), in DMEM (Thermo Fisher #11995-040) containing 10% FBS (Thermo Fisher #26140-079), 1% MEM NEAA (Thermo Fisher #11140-050), 1% GlutaMax (Thermo Fisher #35050-061), and 1% Penicillin Streptomycin (Thermo Fisher #15140-122). 293A cells were incubated at 37° C., 5% CO2 for 24 h and then transfected with 6 μg MERTK DNA (Genecopoeia #EX-Z8208-M02) using TransIT LT1 transfection reagent (Mirus-Bio #MIR2305). After 24 h incubation, the transfected 293A cells were seeded at 1×10^5 cells/well onto 96-well plates (Corning #3904) in DMEM growth medium overnight. Test compounds were serially diluted to produce an 8-point dose curve in fresh serum-free medium to a final concentration of 0.3% DMSO (vehicle) and added to the cells and incubated for 1 h. Cells were then immediately lysed with 150 μL of cold IX lysis buffer [20 mM Tris, 137 mM sodium chloride, 2 mM EDTA, 10% glycerol, l % NP-40 alternative, 1 mM activated sodium orthovanadate, 1 mM PefaBloc SC (Sigma-Aldrich #11429868001), protease/phosphatase inhibitor tablet (Thermo Fisher #A32959)]. Lysates were clarified by centrifugation and 50 μL/well added into the human phospho-Mer DuoSet IC ELISA (R&D Systems #DYC2579-2). Assay was performed according to manufacturer's instructions and sample phospho-Mer concentrations were extrapolated using human phospho-Mer control (R&D Systems #841793) as a standard. Positive control wells (100% activity) contained DMSO-treated cell lysates. Negative control wells (0% activity) contained reference inhibitor-treated cell lysates. IC50 values were calculated by nonlinear regression analysis using a 4-parameter logistic curve fit in ActivityBase XE (IDBS).

[2] = Microsomal assay, rat liver microsome stability; settings: liver microsomes, pH 7.4
Description: (§1) Liver microsomes tissue fractions were used for in vitro assessment of metabolic stability of compounds by cytochrome P450 (CYP450) (for example, CYP3A4, CYP2C9) mediated phase I oxidation, and metabolism through other pathways. Human, mouse, rat, and dog liver microsomes tissue fractions were obtained from Corning Gentest and BioreclamationIVT.
(§2) The assay was carried out in 96-well microtiter plates. Compounds were incubated (N=l) at 37° C. in the presence of liver microsomes. Reaction mixtures (25 μL) contained a final concentration of 1 μM test compound, 0.5 mg/mL liver microsomes (LM) protein, and 1 mM NADPH in 100 mM potassium phosphate, pH 7.4 buffer with 3.3 mM MgCl2. The extent of metabolism was calculated as the disappearance of the test compound, compared to the 0-min control reaction incubations. Verapamil was included as a positive control to verily assay performance.
(§3) At each of the four time points, 150 μL of quench solution (100% acetonitrile with 0.1% formic acid) with internal standard (bucetin for positive ESI mode) was transferred to each well. Plates were sealed and centrifuged at 10° C. for 15 minutes at 4000 rpm. The supernatant was transferred to fresh plates for LC/MS/MS analysis.
(§4) All samples were analyzed on LC/MS/MS using an AB Sciex API 4000 instrument, coupled to a Shimadzu LC-20AD LC Pump system. Analytical samples were separated using a Waters Atlantis T3 dC18 reverse phase HPLC column (20 mm×2.1 mm) at a flow rate of 0.5 mL/min. The mobile phase consisted of 0.1% formic acid in water (solvent A) and 0.1% formic acid in 100% acetonitrile (solvent B).

[3] = Microsomal assay, human liver microsome stability; settings: liver microsomes, pH 7.4
Description: as §1, §2, §3, §4

[4] = Microsomal assay, mouse liver microsome stability; settings: liver microsomes, pH 7.4
Description: as §1, §2, §3, §4

SMILES	IC50 [1] [nM]	half-life at 1 μM [2] [min]	half-life at 1 μM [3] [min]	half-life at 1 μM [4] [min]
COc1cc2nccc(Oc3ccc(NC(=O)C4(C(=O)N(C)c5ccc(F)cc5)CC4)cc3)c2cc1OC [Compound 9, 1-N-[4-(6,7-Dimethoxyquinolin-4-yl)oxyphenyl]-1-N′-(4-fluorophenyl)-1-N′-methylcyclopropane-1,1-dicarboxamide]	> 300	1.4	1.4	3.1
CNC(=O)c1cc2c(Oc3ncc(NC(=O)C4(C(=O)N(C)c5ccc(F)cc5)CC4)cc3F)ccnc2cc1OC [Compound 34, 1-N-[5-Fluoro-6-[7-methoxy-6-(methylcarbamoyl)quinolin-4-yl]oxypyridin-3-yl]-1-N′-(4-fluorophenyl)-1-N′-methylcyclopropane-1,1-dicarboxamide]	> 300	1.3	1.3	2.6
COc1cc2nccc(Oc3ccc(N(C)C(=O)C4(C(=O)Nc5ccc(F)cc5)CC4)cc3F)c2cc1OC [Compound 51, 1-N′-[4-(6,7-Dimethoxyquinolin-4-yl)oxy-3-fluorophenyl]-1-N-(4-fluorophenyl)-1-N′-methylcyclopropane-1,1-dicarboxamide]	> 300	14.3	29.7	9.6

More lines, now with the values ahead:

IC50 [1] [nM]	half-life at 1 μM [2] [min]	half-life at 1 μM [3] [min]	half-life at 1 μM [4] [min]	SMILES
> 300	1.3	1.3	4.1	COc1cc2nccc(Oc3ccc(NC(=O)C4(C(=O)N(C)c5ccc(F)cc5)CC4)cc3F)c2cc1OC [Compound 10, N-(4-((6,7-Dimethoxyquinolin-4-yl)oxy)-3-fluorophenyl)-N-(4-fluorophenyl)-N-methylcyclopropane-1,1-dicarboxamide]
> 300	1.2	1.3	1.9	COc1cc2nccc(Oc3ncc(NC(=O)C4(C(=O)N(C)c5ccc(F)cc5)CC4)cc3F)c2cc1C(N)=O [Compound 35, 1-N-[6-(6-Carbamoyl-7-methoxyquinolin-4-yl)oxy-5-fluoropyridin-3-yl]-1-N′-(4-fluorophenyl)-1-N′-methylcyclopropane-1,1-dicarboxamide]
